Reference: US9023875B2, “Macrocyclic compounds and methods of treatment” (University of Florida Research Foundation, Inc., priority 2007, dated 2015)
Where two headings read alike, the source gives them in different places. Starred links: 1 amine or outer side, 2 acyl side, 3 side chain; linkers in the order of their positions; H or OH if unused. Positions of bridges follow the written chain, without caps; N, C: chain ends. Non-standard residues stand in square brackets, D forms with d. Residues, ends and D or L forms follow the SMILES beside them. Chains are numbered I, II in the order given. Actinocin(9to1) = Cc1c2oc3c(C)ccc(C(=O)[*:1])c3nc-2c(C(=O)[*:2])c(N)c1=O; NMeV = CN[C@H](C(=O)O)C(C)C; Sar = CNCC(=O)O

Legend:
[1] = system: NIH3T3 cells (nontransformed fibroblasts); experiment: cells; assay type: cell-based; settings: for GI50: read-out: Growth-inhibitory activity (GI50), NIH3T3
Procedure: (§1) Cell culture medium was purchased from Invitrogen and fetal bovine serum (FBS) from Hyclone. Cells were propagated and maintained in DMEM medium (high glucose) supplemented with 10% FBS at 37° C. humidified air and 5% CO2.
(§2) Cells suspended in DMEM containing 10% FBS were plated in 96-well plates (MDA-MB-231: 12,000 cells; NMuMG: 5,000 cells; U20S: 5,000 cells; HT29: 10,000 cells; 1MR-32: 30,000 cells; NIH3T3: 5,000 cells) incubated (37° C., 5% CO2) and 24 h later treated with various concentrations of compound 1 or solvent control (1% EtOH). After another 48 h of incubation, cell viability was measured using MITT according to manufacturer's instructions (Promega).
(§3) MDA-MB-231 and NMuMG cells were also treated with paclitaxel (in DMSO), actinomycin D (in DMSO) and doxorubicin (in H2O) and corresponding solvent control (1%) in the same manner. GI50 and LC50 values were calculated as previously described (K. D. Paull, E. Hamel, L. Malspeis, In Cancer Chemotherapeutic Agents, W. E. Foye, Ed., American Chemical Society, Washington, D.C., 1995, pp. 10-11).
(§4) [formula] [formula] [T=absorbance in treated wells (48 h); T0=absorbance at time zero; C=absorbance in control wells (48 h)]

[2] = system: U2OS cells (fibroblastic osteosarcoma); experiment: cells; assay type: cell-based; settings: for GI50: read-out: Growth-inhibitory activity (GI50), U2OS
Procedure: as §1, §2, §3, §4

[3] = system: MDA-MB-231 cells (highly invasive transformed human mammary epithelial cells); experiment: cells; assay type: cell-based
Procedure: as §1, §2, §3, §4

[4] = system: NMuMG cells (nontransformed murine mammary epithelial cells); experiment: cells; assay type: cell-based; settings: 48 h, read-out: Growth-inhibitory activity (GI50), NMuMG
Procedure: as §1, §2, §3, §4

[5] = system: HeLa nuclear extract HDACs (class I HDACs 1, 2, and 3); experiment: Cell-free enzymatic assay with HDAC-enriched HeLa nuclear protein extract; assay type: biochemical; settings: fluor de Lys substrate
Procedure: Largazole (1) inhibited HDAC activity from a HeLa cell nuclear protein extract rich in class I HDACs 1, 2, and 3 (BIOMOL); however, it is possible that the thioester is cleaved under assay conditions. To investigate that thiol 9 is a reactive species, we liberated 9 from the acetyl analog 8 of largazole (1) and measured enzymatic activity directly; thiol 9 inhibited the HDACs in the nuclear extract of HeLa cells with a similar IC50 value (Table 3).
Assay buffer (25 ul in blank and 10 ul in control), 1 μM triehostatin and test inhibitors (ranging from 10 μM to 300 pM) are added to test sample wells of the microtiter plate. HDAC-enriched nuclear protein extract from HeLa cells (BIOMOL) (5 μg in 15 uL) is added to all wells except in the no-enzyme control. The assay plate is equilibrated at 37° C., and then 25 μl of substrate fluor de Lys™ substrate is added to a final concentration of 116 μM. HDAC reaction is allowed to proceed for 15 min and then stopped by addition of 50 μl per well of 1× fluor de Lys™ Developer containing TSA at 2 μM. After developer addition, plates are incubated for 15 min at 37° C. and fluorescence is read (Ex 360 nm, Em 460 nm).

acetylated histone H3 = experiment: Immunoblot analysis of acetylated histone H3 in HCT-116 cells; assay type: cell-based; settings: 8 h
Procedure: HCT-116 cells (650,000 cells/dish) are seeded in 10-cm dishes and 24 h later treated with various concentrations of largazole, trichostatin or solvent controls (EtOH for largazole and DMSO for trichostatin). Following incubation for 8 h, whole-cell lysates are prepared using PhosphoSafe lysis buffer (Novagen), proteins extracted, and protein concentration measured using the BCA method (Pierce). Cell lysates containing equal amounts of protein are separated by SDS-PAGE, transferred to PVDF membranes, probed with antibodies and detected with the Supersignal Femto Western blotting kit (Pierce). Anti-acetyl-histone H3 (Lys9/18) and anti-histone H3 primary antibodies are obtained from Millipore and horseradish peroxidase conjugated anti-rabbit secondary antibody is purchased from Cell Signaling.

[6] = system: HT29 cells (colon cancer cell line); experiment: Cell viability (MTT) assay, HT29; assay type: cell-based; settings: Homo sapiens, HT-29, 48 h
Procedure: as §1, §2, §3, §4

HCT-116 cells = experiment: HCT-116 growth inhibition; assay type: cell-based; settings: Homo sapiens
HDAC = experiment: In vitro cellular HDAC activity assay (fluor de Lys substrate) in HCT-116 cells; assay type: cell-based; settings: 8 h
Procedure: HCT-116 cells are seeded in 100 μL of medium per well at a density of 3.5×10^3 cells/well and grown for 24 h in a sterile 96-well solid bottom plate. The assay is carried out according to the manufacturer's instructions (BIOMOL). Briefly, after 24 h the medium iss replaced with 50 μL/well of medium containing 200 μM fluor de Lys™ substrate and 1 μM of trichostatin A (positive control) and test compounds (largazole, acetyl derivative) ranging from 1 μM to 3.2 nM ([…]) and thiol compound ranging from 10 μM to 300 pM. Plates are incubated at 37° C. for 8 h. After the treatment time, 50 μL per well of 1× fluor de Lys™ Developer containing TSA at 2 μM iss added. After developer addition, plates are incubated for 15 min at 37° C. and fluorescence is read (Ex 360 nm, Em 460 nm).

[7] = system: IMR-32 cells (neuroblastoma cell line); experiment: Cell viability (MTT) assay, IMR-32; assay type: cell-based; settings: Homo sapiens, 48 h
Procedure: as §1, §2, §3, §4

in vitro = assay type: cell-based, murine; settings: mouse, NMuMG cells, MTT, read-out: LC50 (cytotoxicity), NMuMG
Procedure: as §1, §2, §3, §4

[8] = Mus musculus, NIH3T3 cells, 48 h, MTT
[9] = Homo sapiens, U2OS cells, 48 h, MTT
[10] = Homo sapiens, MDA-MB-231, 48 h, MDA-MB-231 cells, 48 h, MTT, read-out: Growth-inhibitory activity (GI50), MDA-MB-231
[11] = Mus musculus, Epithelial cell, NMuMG cells, MTT

CC(=O)O[C@H]1C(=O)[C@@]2(C)[C@H]([C@H](OC(=O)c3ccccc3)[C@]3(O)C[C@H](OC(=O)[C@H](O)[C@@H](NC(=O)c4ccccc4)c4ccccc4)C(C)=C1C3(C)C)[C@]1(OC(C)=O)CO[C@@H]1C[C@@H]2O [Paclitaxel, reference compound]
GI50 [1, 8]: 6.4 nM
GI50 [2, 9]: 12 nM
GI50 [3, 10]: 7 nM
GI50 [4, 11]: 5.9 nM

CCCCCCCC(=O)SCC/C=C/[C@@H]1CC(=O)NCc2nc(cs2)C2=N[C@@](C)(CS2)C(=O)N[C@@H](C(C)C)C(=O)O1 [Largazole (1), largazole]
IC50 [5]: 37 ± 11 nM
Immunoblot of endogenous HDAC substrate acetylated histone H3 (acetylated histone H3): same dose-response relationship
GI50 [6]: 12 nM
CC50 ([6]; read-out: LC50 (cytotoxicity), HT29): 22 nM
GI50 (HCT-116 cells): 44 ± 10 nM
IC50 (HDAC): 51 ± 3 nM
GI50 [7]: 16 nM
GI50 ([1]; Mus musculus, NIH3T3, 48 h): 480 nM
Toxicity (cytotoxicity) in NIH3T3 ([1]; NIH3T3 cells, 48 h, MTT): no apparent toxicity
GI50 ([2]; Homo sapiens, U2OS, 48 h): 55 nM
CC50 ([2]; Homo sapiens, U2OS, 48 h, read-out: LC50 (cytotoxicity), U2OS): 94 nM
Differential growth-inhibitory activity between transformed and nontransformed fibroblasts ([2]; U2OS vs NIH3T3 (GI50)): 8 fold
GI50 ([3]; Homo sapiens, MDA-MB-231, 48 h, read-out: Growth-inhibitory activity (GI50), MDA-MB-231, MDA-MB-231 cells, 48 h, MTT): 8 nM
Differential growth-inhibitory activity between transformed and nontransformed epithelial cells ([3]; MDA-MB-231 vs NMuMG (GI50)): 15 fold
GI50 ([3]; read-out: Growth-inhibitory activity (GI50), MDA-MB-231, MDA-MB-231 cells, 48 h, MTT): 7.7 nM
GI50 ([4]; Mus musculus, Epithelial cell): 122 nM
CC50 at 48 h (in vitro): 272 nM

CC(=O)SCCC=CC1CC(=O)NCc2nc(cs2)C2=NC(C)(CS2)C(=O)NC(C(C)C)C(=O)O1 (centres unmarked) [Compound 8]
IC50 [5]: 52 ± 27 nM
GI50 (HCT-116 cells): 33 ± 2 nM
IC50 (HDAC): 50 ± 18 nM

Cc1c2oc3c(C)ccc(C(=O)N[C@@H]4C(=O)N[C@H](C(C)C)C(=O)N5CCC[C@H]5C(=O)N(C)CC(=O)N(C)[C@@H](C(C)C)C(=O)O[C@@H]4C)c3nc-2c(C(=O)N[C@@H]2C(=O)N[C@H](C(C)C)C(=O)N3CCC[C@H]3C(=O)N(C)CC(=O)N(C)[C@@H](C(C)C)C(=O)O[C@@H]2C)c(N)c1=O [Actinomycin D, reference compound] (I: T[dV]P[Sar][NMeV] / II: T[dV]P[Sar][NMeV]; ester I:1-I:C, II:1-II:C; linker I:N-II:N via Actinocin(9to1))
GI50 ([1]; NIH3T3 cells, 48 h, MTT): 0.4 nM
GI50 ([2]; U2OS cells, 48 h, MTT): 0.8 nM
GI50 ([3]; MDA-MB-231 cells, 48 h, MTT, read-out: Growth-inhibitory activity (GI50), MDA-MB-231): 0.5 nM
GI50 ([4]; NMuMG cells, MTT): 0.3 nM

CC(C)C1NC(=O)C2(C)CSC(=N2)c2csc(n2)CNC(=O)CC(C=CCCS)OC1=O (centres unmarked) [Compound 9]
IC50 [5]: 42 ± 29 nM
GI50 (HCT-116 cells): 38 ± 5 nM
IC50 (HDAC): 209 ± 15 nM

COc1cccc2c1C(=O)c1c(O)c3c(c(O)c1C2=O)C[C@@](O)(C(=O)CO)C[C@@H]3O[C@H]1C[C@H](N)[C@H](O)[C@H](C)O1 [Doxorubicin, reference compound]
GI50 [1, 8]: 47 nM
GI50 [2, 9]: 220 nM
GI50 [3, 10]: 310 nM
GI50 [4, 11]: 63 nM
